Reference: paper PMC10286459 (Cell & Bioscience, 2023)
Non-standard residues stand in square brackets, D forms with d. Residues, ends and D or L forms follow the SMILES beside them.

Key:
[1] = tested on: mouse erythrocytes; experiment: Hemolysis assay; details: 800 µg/mL, mouse blood 10% (v/v) in normal saline, 37℃ for 3 h, absorbance 540 nm
Procedure: (§1) One week later, the animals’ different organs were harvested and subjected to tissue sectioning and H&E staining. Photos were taken by inverted microscope (400×, Nikon TE2000). […] The mice’s diet and activity were observed continuously for 14 days. […] Water and PBS were used as hemolysis positive and negative controls, respectively. The absorbance of the samples was measured at 540 nm and used to calculate the Hemolysis rate % = [(OD Sample - OD Negative) / (OD Positive - OD Negative)] × 100%. E Immunogenicity analysis of M1-21. […] Blood samples were collected from mice at different time points (Week 2 to Week 8) and the absorption of anti-M1-21 antibody in serum (1:1000 dilution) was measured by ELISA. HRP-conjugated anti-mouse IgG was used as an ELISA secondary antibody.
(§2) Hemolysis assays were performed with fresh mouse blood collected and dispersed in normal saline (NaCl 0.9%) at 10% (v/v). […] Sterile double distilled water and PBS were used as positive and negative controls, respectively. Immunogenicity of M1-21 was detected by ELISA in mice. […] Blood samples were collected from mice at different time points (Week 2 to Week 8). […] ELISA plates were washed twice with PBS and blocked with 3% bovine serum albumin for 2 h. […] Absorption was measured at 492 nm.

[2] = Immunogenicity, ELISA of anti-M1-21 antibodies in serum; format: in vivo, mouse; details: ICR/JCL mice, 30 mg/kg/week × 4 weeks I.P., serum Week 2 to Week 8, 1:1000, ELISA 492 nm; except at Week 4
Procedure: as §1, §2

[3] = tested on: MDA-MB-231 cells; details: Biotin-M1-21 20 µM, 4 h, cytosol and nuclear protein samples, Western blotting
[4] = tested on: MDA-MB-231 cells; experiment: Wound Healing assay; details: MDA-MB-231, 10 µM for 36 h; versus M1-21mut; n = 3
[5] = tested on: MDA-MB-231 cells; experiment: Colony formation assay; details: MDA-MB-231, 200 cells/well, 20 µM, 14 days; versus M1-21mut
Procedure: C qPCR was used to verify changes in PCNA and CyclinB1 mRNA levels from panel A samples. […] D MDA-MB-231 cells were treated as panel A and cell lysates were prepared. PCNA and CyclinB1 protein levels were measured by Western blotting. β-actin was used as a loading control. […] The cells were fixed with 4% paraformaldehyde and stained with crystal violet for imaging. The treatment’s ability to form colonies was measured by counting the number of cell colonies in each well. F BALB/c nude mice (female, 6 weeks old) were subcutaneously injected with MDA-MB-231 cells (1 × 10^6 cells/mouse). […] The volume of engrafted tumors was measured every two days and growth curves were obtained at the end of the experiment. The tumor volume (V) was calculated by: V = length × diameter^2 × 1/2. G Images and weight of engrafted tumors on Day 19. H MDA-MB-231 cells were seeded into plates to reach 90% confluence. A 200 µl pipette tip was used to thread a line and then photographed. […] Number of repetitions = 3. […] The levels of mRNA or protein of E-cadherin (E-cad), Vimentin (VIM), and N-cadherin (N-cad) were measured by qPCR or Western blotting, respectively. GAPDH or β-actin was used as a loading control for mRNA or protein. mRNA values represented the mean ± SD of three replicates, and significance was calculated using unpaired t test. *P < 0.05; **P < 0.01; ***P < 0.001 […]

[6] = target: FOXM1:LIN9 or FOXM1: B-MYB (Homo sapiens, UniProt Q08050); experiment: Co-IP in 231-Flag-FOXM1-Ind cells; details: 10, 20 µM for 6 h, dose-dependent
Chain of FOXM1:LIN9 or FOXM1: B-MYB (Q08050 1-748 isoform Q08050-2): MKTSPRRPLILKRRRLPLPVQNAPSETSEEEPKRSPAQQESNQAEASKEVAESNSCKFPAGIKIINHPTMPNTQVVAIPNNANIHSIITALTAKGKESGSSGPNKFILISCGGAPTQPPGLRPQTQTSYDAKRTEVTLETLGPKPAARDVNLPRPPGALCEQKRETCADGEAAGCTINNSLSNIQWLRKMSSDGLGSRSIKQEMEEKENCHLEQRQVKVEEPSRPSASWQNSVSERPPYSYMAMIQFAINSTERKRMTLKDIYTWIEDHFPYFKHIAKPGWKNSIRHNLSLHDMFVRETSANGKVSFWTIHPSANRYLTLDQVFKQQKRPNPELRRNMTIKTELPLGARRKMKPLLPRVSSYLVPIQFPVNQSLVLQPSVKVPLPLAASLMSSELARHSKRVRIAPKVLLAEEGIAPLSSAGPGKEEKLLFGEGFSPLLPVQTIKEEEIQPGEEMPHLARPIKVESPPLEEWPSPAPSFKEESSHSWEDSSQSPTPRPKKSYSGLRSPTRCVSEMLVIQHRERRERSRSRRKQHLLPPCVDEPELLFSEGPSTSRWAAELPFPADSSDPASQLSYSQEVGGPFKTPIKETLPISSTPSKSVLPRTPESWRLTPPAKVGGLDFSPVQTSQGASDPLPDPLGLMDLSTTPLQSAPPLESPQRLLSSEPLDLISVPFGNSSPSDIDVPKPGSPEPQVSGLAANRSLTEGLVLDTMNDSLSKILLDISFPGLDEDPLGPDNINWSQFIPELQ
Procedure: Cell lysates (500 µg) were extracted and incubated with anti-Flag magnetic beads to pull down Flag-FOXM1/proteins complexes. […] 5% of cell lysates (25 µg) were used as input controls.
For Co-IP, IP lysate buffer was used to extract total protein. 500 µg protein lysates were incubated with 20 µl of Anti-Flag Magnetic Beads (Bimake, USA) for Flag-FOXM1 proteins at 4 °C for 3 h. The beads were washed 5 times with pre-cooled 1×PBS and subjected to Western blotting.

[7] = tested on: MDA-MB-231 engrafted tumors; experiment: MDA-MB-231 tumor-engrafted BALB/c nude mice
Procedure: F BALB/c nude mice (female, 6 weeks old) were subcutaneously injected with MDA-MB-231 cells (1 × 10^6 cells/mouse). […] The volume of engrafted tumors was measured every two days and growth curves were obtained at the end of the experiment. The tumor volume (V) was calculated by: V = length × diameter^2 × 1/2. G Images and weight of engrafted tumors on Day 19. […] Number of repetitions = 3.
BALB/c nude mice and BALB/c wild-type mice (female, 6 weeks old) were purchased from Hunan SJA Laboratory Animal Co., Ltd. (Changsha, China). […] BALB/c nude mice were injected subcutaneously with MDA-MB-231 cells (1 × 10^6 cell/mouse). […] Tumor size was measured every two days. The tumor volume (V) was calculated by: V = length × diameter^2 × 1/2. Cancer tissue from the animals was harvested for imaging and weighing on Day 19.
B The lysates of the harvested cancer tissues were obtained and the protein levels of FOXM1, CDC25B, and PLK1 were detected by Western blotting. β-actin was used as a loading control. ImageJ software was used to calculate the gray value of the bands, and each point represented the value of protein content in the samples.

[8] = tested on: β-catenin; experiment: β-catenin levels in cytosol and nuclear protein samples; details: MDA-MB-231, 20 µM for 6 h; Western blotting
Procedure: The recombinant proteins in the samples were separated by PAGE-gel and detected with Ponceau S staining solution (marked by *). 10% of recombinant proteins (10 µg) were used as input controls. […] Mean binding affinity values (KD (µM)) were shown on the panel. Experiments were repeated three times with similar results. C Reporter plasmids containing the luciferase gene downstream of the 6×FOXM1 binding sequence (6×FOXM1 Binding-Luc, 0.4 µg) or the − 1.8 kb CDC25B promoter (CDC25B pro(-1.8 kb)-Luc, 0.4 µg) were co-transfected with pCMV-FOXM1 (0.6 µg) into HEK-293T cells, plus pRL-CMV plasmid (20 ng/well) as a loading control. […] The levels of Flag-FOXM1 and PLK1 proteins in the samples were detected by Western blotting. […] E Flag-FOXM1, LIN9, and B-MYB protein levels in panel D samples were detected by Western blotting. […] The mRNA levels of PLK1, CDC25B, and Vimentin (VIM) were measured by qPCR. […] The protein levels of PLK1, CDC25B, and Vimentin (VIM) were measured by Western blotting. β-actin was used as a loading control.
The cells were washed with ice-cold 1×PBS and lysed on ice with IP lysate buffer containing 20 mM Tris/HCl pH 7.6, 150 mM NaCl, 1% NP-40, 0.1 mM EDTA, and protease inhibitors. […] After centrifugation, the protein concentration in the supernatant was measured with a BCA protein reagent (Thermo Fisher Scientific, USA). […]

[9] = tested on: 4T1-Luc-GFP cells; experiment: 4T1-Luc-GFP metastasis tracing in wild-type BALB/c mice; details: 15 or 30 mg/kg intraperitoneal every two days
Procedure: D Wild-type BALB/c mice were tail-vein injected with 4T1-Luc-GFP cells (1 × 10^6 cells/mouse). […] E Different organs of representative mice were harvested on Day 21 and fluorescent imaging was performed as described above. F The D panel mouse survival statistic curves were obtained by the Mantel-Cox estimator with log rank test
Wild-type BALB/c mice were injected with 4T1-Luc-GFP cells (1 × 10^6 cells/mouse) via the tail vein. […] Different organs of representative mice were harvested on Day 21 for luminaire imaging. When the mice lost mobility and had difficulty eating, the mice were considered near death and terminated according to animal welfare. The survival statistic curve was obtained by the Mantel-Cox estimator with the log rank test.

[10] = tested on: MDA-MB-231 cells; experiment: mRNA and protein levels of marker and target genes (qPCR, Western blotting)
Procedure: The levels of mRNA or protein of E-cadherin (E-cad), Vimentin (VIM), and N-cadherin (N-cad) were measured by qPCR or Western blotting, respectively. GAPDH or β-actin was used as a loading control for mRNA or protein. mRNA values represented the mean ± SD of three replicates, and significance was calculated using unpaired t test. *P < 0.05; **P < 0.01; ***P < 0.001
The mRNA levels of PLK1, CDC25B, and Vimentin (VIM) were measured by qPCR. GAPDH was used as a loading control. […] The protein levels of PLK1, CDC25B, and Vimentin (VIM) were measured by Western blotting. β-actin was used as a loading control.
FOXM1 mRNA was detected by qPCR. GAPDH was used as a loading control.

[11] = MDA-MB-231, 10 µM, 24 h, qPCR, Western blotting

## CC[C@@H](C)[C@@H](NC(=O)[C@@H](CC(C)C)NC(=O)[C@H](NC(=O)[C@@H](CO)NC(=O)[C@@H](CS)NC(=O)CNC(=O)CNC(=O)[C@@H](C)NC(=O)[C@H]1CCCN1C(=O)[C@H](NC(=O)[C@@H](CCC(N)=O)NC(=O)[C@H]1CCCN1C(=O)[C@H]1CCCN1C(=O)CNC(=O)[C@@H](CC(C)C)NC(=O)[C@@H](CCCNC(=N)N)NC(=O)[C@H]1CCCN1C(=O)[C@@H](CCC(N)=O)NC(=O)[C@H](NC(=O)[C@H](N)CCC(N)=O)[C@H](C)O)[C@H](C)O)[C@H](C)CC)C(=O)N[C@H](Cc1ccccc1)C(=O)N[C@H](CCCNC(=N)N)C(=O)N[C@H](CCCNC(=N)N)C(=O)N[C@H](CCCNC(=N)N)C(=O)N[C@H](CCC(N)=O)C(=O)N[C@H](CCCNC(=N)N)C(=O)N[C@H](CCCNC(=N)N)C(=O)N[C@H](CCCCN)C(=O)N[C@H](CCCCN)C(=O)N[C@H](CCCNC(=N)N)C(=O)NCC(=O)O [M1-21] (H-[dQ][dT][dQ][dP][dR][dL]G[dP][dP][dQ][dT][dP][dA]GG[dC][dS][dI][dL][dI][dF][dR][dR][dR][dQ][dR][dR][dK][dK][dR]G-OH; N-terminus and C-terminus assumed)
[1]
  hemolysis to erythrocytes: very mild hemolysis
[2]
  M1-21-specific antibody generation in serum: relatively low levels
[3]
  distribution after entering cells: distributed in cytoplasm and nucleus
[4]
  cell migration: inhibited
[5]
  colony formation: inhibitory effects
[6]
  interaction of FOXM1:LIN9 or FOXM1: B-MYB (Co-IP): disrupted the interaction
[7]; BALB/c nude mice, 30 mg/kg intraperitoneal once every two days, Day 19, n = 6
  size and weight of engrafted tumors at the end of the experiment: significantly decreased
[7]; BALB/c nude mice, 30 mg/kg intraperitoneal once every two days, n = 6, versus PBS
  growth of engrafted tumors (tumor volume): growth inhibition of engrafted tumors
[7]; Western blotting of harvested cancer tissues, Fig. S12B
  levels of FOXM1, CDC25B and PLK1 in tumor samples: decreased levels
[8]
  β-catenin levels in cytoplasm and nucleus: elevated levels of β-catenin in the cytoplasm and declined levels of β-catenin in the nucleus
[9]; Mantel-Cox, log rank test
  survival time of the animals: significantly prolonged
[9]; n = 6 per group, Day 1, 7, 17, organs Day 21
  metastasis of 4T1-Luc-GFP cells (in vivo luciferase imaging): prevented metastasis
[10]; [11]
  levels of epithelial marker E-cadherin: increased
  levels of mesenchymal markers Vimentin and N-cadherin: decreased
[10]; MDA-MB-231, 20 µM for 24 h, versus M1-21mut
  mRNA and protein levels of PCNA and Cyclin B1: downregulated
[10]; MDA-MB-231, 20 µM, and spontaneously developed cancer tissues, Fig. S21
  levels (mRNA or protein) of FOXM1 itself: decrease the levels
[10]; MDA-MB-231, 20 µM, qPCR 24 h, Western blotting 1.5-36 h
  mRNA and protein levels of CDC25B, PLK1 and Vimentin: dramatically repressed the expression
